According to US6765010B2, “Compositions and methods for enhancing analgesic potency of tramadol and attenuating its adverse side effects” (Pain Therapeutics, Inc., priority 1999, dated 2004):
Read-outs that look alike come from different tables or passages of the source.

Columns and labels:
[1] = system: human subjects/patients with pain following dental surgery; assay type: in vivo
[2] = system: human subjects/patients with pain following dental surgery; test: Dental surgery pain study: categorical pain intensity difference (PID, SPID); assay type: in vivo; settings: LOCF; for Hourly Pain Intensity Difference (PID) score, Mean / Hourly Pain Intensity Difference (PID) score, Median: ITT subjects, PID as numerical variable
[3] = system: human subjects/patients with pain following dental surgery; test: Dental surgery pain study: visual analog scale pain intensity difference (VAS-PID, VAS-SPID); assay type: in vivo; settings: LOCF; for Hourly Visual Analog-PID (VAS-PID) score, Mean / Hourly Visual Analog-PID (VAS-PID) score, Median: ITT subjects
[4] = system: human subjects/patients with pain following dental surgery; test: Dental surgery pain study: global evaluations; assay type: in vivo; settings: ITT
From the text: For this randomized, double-blind, active-controlled and placebo-controlled, parallel-group study, human subjects were randomized into one of the following five treatment groups:
A positive control (T, Group 4) was used to determine the sensitivity of the clinical end points. A negative control (placebo, Group 5) was used to establish the frequency and magnitude of changes in clinical end points that may occur in the absence of an active treatment. A single oral dose of study medication was administered when the subject experienced moderate to severe pain following the surgical extraction of three or four third molars. At least one of the molars was required to be mandibular bony impacted.
At the end of eight hours, or at the termination of hourly observations if sooner than eight hours, a global assessment was made by the subject and the observer in response to the question, “How do you rate the pain relief?” with response choices of excellent, very good, good, fair or poor. Assessment of adverse events continued for at least one hour following rescue medication. Subjects not completing at least the Hour 1 observation period were considered not evaluable for efficacy and were replaced.

[5] = in vivo, cited from earlier work
α2-adrenoreceptors = settings: cited from earlier work

COc1cccc([C@@]2(O)CCCC[C@@H]2CN(C)C)c1.Cl (racemic) [tramadol, (1RS,2RS)-2[(dimethylamino)-methyl]-1-(3-methoxyphenyl)-cyclohexanol HCL]
Hourly Pain Relief Score (PAR), Mean ([1]; Hour 0.5, ITT): 0.28
Hourly Pain Relief Score (PAR), Median ([1]; Hour 0.5, ITT): 0
Hourly Pain Relief Score (PAR), Mean ([1]; Hour 1, ITT): 0.40
Hourly Pain Relief Score (PAR), Median ([1]; Hour 1, ITT): 0
Hourly Pain Relief Score (PAR), Mean ([1]; Hour 2, ITT): 0.76
Hourly Pain Relief Score (PAR), Median ([1]; Hour 2, ITT): 0
Hourly Pain Relief Score (PAR), Mean ([1]; Hour 3, ITT): 0.80
Hourly Pain Relief Score (PAR), Median ([1]; Hour 3, ITT): 0
Hourly Pain Relief Score (PAR), Mean ([1]; Hour 4, ITT): 0.94
Hourly Pain Relief Score (PAR), Median ([1]; Hour 4, ITT): 0
Hourly Pain Relief Score (PAR), Mean ([1]; Hour 5, ITT): 0.84
Hourly Pain Relief Score (PAR), Median ([1]; Hour 5, ITT): 0
Hourly Pain Relief Score (PAR), Mean ([1]; Hour 6, ITT): 0.86
Hourly Pain Relief Score (PAR), Median ([1]; Hour 6, ITT): 0
Hourly Pain Relief Score (PAR), Mean ([1]; Hour 7, ITT): 0.82
Hourly Pain Relief Score (PAR), Median ([1]; Hour 7, ITT): 0
Hourly Pain Relief Score (PAR), Mean ([1]; Hour 8, ITT): 0.86
Hourly Pain Relief Score (PAR), Median ([1]; Hour 8, ITT): 0
TOTPAR up to 4 Hours, Mean ([1]; ITT, single oral dose, LOCF): 3.18
TOTPAR up to 4 Hours, Median ([1]; ITT, single oral dose, LOCF): 2
TOTPAR up to 6 Hours, Mean ([1]; ITT, single oral dose, LOCF): 4.88
TOTPAR up to 6 Hours, Median ([1]; ITT, single oral dose, LOCF): 2
TOTPAR up to 8 Hours, Mean ([1]; ITT, single oral dose, LOCF): 6.56
TOTPAR up to 8 Hours, Median ([1]; ITT, single oral dose, LOCF): 2
Hourly Pain Intensity Difference (PID) score, Mean ([2]; Hour 0.5): −0.22
Hourly Pain Intensity Difference (PID) score, Median ([2]; Hour 0.5): 0
Hourly Pain Intensity Difference (PID) score, Mean ([2]; Hour 1): −0.30
Hourly Pain Intensity Difference (PID) score, Median ([2]; Hour 1): 0
Hourly Pain Intensity Difference (PID) score, Mean ([2]; Hour 2): −0.06
Hourly Pain Intensity Difference (PID) score, Median ([2]; Hour 2): 0
Hourly Pain Intensity Difference (PID) score, Mean ([2]; Hour 3): −0.06
Hourly Pain Intensity Difference (PID) score, Median ([2]; Hour 3): 0
Hourly Pain Intensity Difference (PID) score, Mean ([2]; Hour 4): 0.06
Hourly Pain Intensity Difference (PID) score, Median ([2]; Hour 4): 0
Hourly Pain Intensity Difference (PID) score, Mean ([2]; Hour 5): 0.00
Hourly Pain Intensity Difference (PID) score, Median ([2]; Hour 5): 0
Hourly Pain Intensity Difference (PID) score, Mean ([2]; Hour 6): 0.04
Hourly Pain Intensity Difference (PID) score, Median ([2]; Hour 6): 0
Hourly Pain Intensity Difference (PID) score, Mean ([2]; Hour 7): −0.02
Hourly Pain Intensity Difference (PID) score, Median ([2]; Hour 7): 0
Hourly Pain Intensity Difference (PID) score, Mean ([2]; Hour 8): 0.02
Hourly Pain Intensity Difference (PID) score, Median ([2]; Hour 8): 0
SPID up to 4 Hours, Mean ([2]; ITT, single oral dose): −0.58
SPID up to 4 Hours, Median ([2]; ITT, single oral dose): 0
SPID up to 6 Hours, Mean ([2]; ITT, single oral dose): −0.54
SPID up to 6 Hours, Median ([2]; ITT, single oral dose): 0
SPID up to 8 Hours, Mean ([2]; ITT, single oral dose): −0.54
SPID up to 8 Hours, Median ([2]; ITT, single oral dose): 0
Hourly Visual Analog-PID (VAS-PID) score, Mean ([3]; Hour 0.5): −6.16
Hourly Visual Analog-PID (VAS-PID) score, Median ([3]; Hour 0.5): −4
Hourly Visual Analog-PID (VAS-PID) score, Mean ([3]; Hour 1): −7.54
Hourly Visual Analog-PID (VAS-PID) score, Median ([3]; Hour 1): −7
Hourly Visual Analog-PID (VAS-PID) score, Mean ([3]; Hour 2): −2.58
Hourly Visual Analog-PID (VAS-PID) score, Median ([3]; Hour 2): −4
Hourly Visual Analog-PID (VAS-PID) score, Mean ([3]; Hour 3): −1.76
Hourly Visual Analog-PID (VAS-PID) score, Median ([3]; Hour 3): −2
Hourly Visual Analog-PID (VAS-PID) score, Mean ([3]; Hour 4): 1.50
Hourly Visual Analog-PID (VAS-PID) score, Median ([3]; Hour 4): −2
Hourly Visual Analog-PID (VAS-PID) score, Mean ([3]; Hour 5): 1.16
Hourly Visual Analog-PID (VAS-PID) score, Median ([3]; Hour 5): −2
Hourly Visual Analog-PID (VAS-PID) score, Mean ([3]; Hour 6): 1.36
Hourly Visual Analog-PID (VAS-PID) score, Median ([3]; Hour 6): −2
Hourly Visual Analog-PID (VAS-PID) score, Mean ([3]; Hour 7): −1.10
Hourly Visual Analog-PID (VAS-PID) score, Median ([3]; Hour 7): −2
Hourly Visual Analog-PID (VAS-PID) score, Mean ([3]; Hour 8): −0.02
Hourly Visual Analog-PID (VAS-PID) score, Median ([3]; Hour 8): −2
VAS-SPID up to 4 Hours, Mean ([3]; ITT, single oral dose): −16.54
VAS-SPID up to 4 Hours, Median ([3]; ITT, single oral dose): −19
VAS-SPID up to 6 Hours, Mean ([3]; ITT, single oral dose): −14.02
VAS-SPID up to 6 Hours, Median ([3]; ITT, single oral dose): −18
VAS-SPID up to 8 Hours, Mean ([3]; ITT, single oral dose): −15.14
VAS-SPID up to 8 Hours, Median ([3]; ITT, single oral dose): −27
Global Evaluation, Observer Evaluation: Excellent [4]: 2 (4.0%) n (%)
Global Evaluation, Observer Evaluation: Fair [4]: 13 (26.0%) n (%)
Global Evaluation, Observer Evaluation: Good [4]: 5 (10.0%) n (%)
Global Evaluation, Observer Evaluation: Poor [4]: 25 (50.0%) n (%)
Global Evaluation, Observer Evaluation: Very Good [4]: 5 (10.0%) n (%)
Global Evaluation, Subject Evaluation: Excellent [4]: 1 (2.0%) n (%)
Global Evaluation, Subject Evaluation: Fair [4]: 13 (26.0%) n (%)
Global Evaluation, Subject Evaluation: Good [4]: 4 (8.0%) n (%)
Global Evaluation, Subject Evaluation: Poor [4]: 26 (52.0%) n (%)
Global Evaluation, Subject Evaluation: Very Good [4]: 6 (12.0%) n (%)
potency relative to morphine ([5]; iv): approximately one-tenth
oral analgesic potency versus morphine ([5]; po): equipotent to oral morphine 30 mg
affinity for α2-adrenoreceptors (α2-adrenoreceptors): does not have affinity
